Drawing on patent publication EP0552657A1, “Use of pure Boswellic acid” (AMMON, Hermann P.T., priority 1992, dated 1993), this text covers IC50 for six compounds.

In the assay the target is T1, 5-Lipoxygenase (Rattus norvegicus, UniProt P12527).
T1 sequence (P12527 1-673): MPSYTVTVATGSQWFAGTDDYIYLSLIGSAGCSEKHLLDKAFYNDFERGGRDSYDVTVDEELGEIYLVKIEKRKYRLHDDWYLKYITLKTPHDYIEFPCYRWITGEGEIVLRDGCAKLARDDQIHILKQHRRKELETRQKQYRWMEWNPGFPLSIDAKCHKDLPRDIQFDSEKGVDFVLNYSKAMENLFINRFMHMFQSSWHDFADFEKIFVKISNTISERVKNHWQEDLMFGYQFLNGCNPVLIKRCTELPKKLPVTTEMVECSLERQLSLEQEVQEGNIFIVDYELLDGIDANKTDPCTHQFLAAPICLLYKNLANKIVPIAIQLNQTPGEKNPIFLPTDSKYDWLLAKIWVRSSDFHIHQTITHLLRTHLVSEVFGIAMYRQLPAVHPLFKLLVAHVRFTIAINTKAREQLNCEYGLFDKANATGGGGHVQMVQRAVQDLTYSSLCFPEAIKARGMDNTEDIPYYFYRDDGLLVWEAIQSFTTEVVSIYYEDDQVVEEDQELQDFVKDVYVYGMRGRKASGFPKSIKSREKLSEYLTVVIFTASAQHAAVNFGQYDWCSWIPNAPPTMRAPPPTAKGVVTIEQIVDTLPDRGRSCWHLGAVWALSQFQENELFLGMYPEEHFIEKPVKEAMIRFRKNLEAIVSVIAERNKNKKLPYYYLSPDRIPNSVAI
Nature of the assay: 5-lipoxygenase inhibition by boswellic acids (stimulated neutrophil granulocytes from rat peritoneum). It counts as cell-based, Ratte. The settings on record: read-out: IC50-Werte für die 5-LO-Hemmung. The source says: Mit Hilfe des Testes mit Calcium- und Ionophor-stimulierten neutrophilen Leukozyten der Ratte konnte nachgewiesen werden, daß Extrakte aus Boswellia serrata vorwiegend die Bildung von Leukotrienen blockieren, dagegen die Prostaglandinsynthese erst in wesentlich höheren Konzentrationen beeinflussen (vgl. zur Methodik: a) Messung der Leukotriene: Safayhi et al., Biochem. Pharmacology, 34:2691-2694, 1985; b) Messung der Prostaglandine: Kommerzielle Radio-Immunoassay-Kits der Firma Amersham für 6-Keto-PGF1α).
Anhand der beigefügten Zeichnungen wird die Erfindung näher erläutert. […] Methode: Safayhi et al., JPET accepted. • Fig. 4 die Elutionsprofile der durch Eisen/Ascorbat-Stimulation aus exogener Arachidonsäure im zellfreien System entstehenden oxidierten und hydroxylierten Produkte in Gegenwart steigender Konzentrationen von Acetyl-boswelliasäure (A) und Nordihydroguaiaretsäure (B). Methode: Safayhi et al., JPET accepted.
Broadly, the IC50 is the concentration at which inhibition is half-maximal. As to `CC(=O)O[C@@H]1CC[C@@]2(C)[C@@H](CC[C@]3(C)[C@@H]2C(=O)C=C2[C@@H]4[C@@H](C)[C@H](C)CC[C@]4(C)CC[C@]23C)[C@@]1(C)C(=O)O` [Acetyl-11-keto-ß-boswelliasäure], the half-inhibitory concentration (IC50) is 2 µM.

As to `CC1(C)CC[C@]2(C)CC[C@]3(C)C(=CC[C@@H]4[C@@]5(C)CC[C@@H](O)[C@](C)(C(=O)O)[C@@H]5CC[C@]43C)[C@@H]2C1` [α-Boswelliasäure], the IC50 stood at 5 µM.

In the case of `C[C@H]1[C@H](C)CC[C@]2(C)CC[C@]3(C)C(=CC[C@@H]4[C@@]5(C)CC[C@@H](O)[C@](C)(C(=O)O)[C@@H]5CC[C@]43C)[C@H]12` [ß-Boswelliasäure], the 50% inhibitory concentration (IC50) was determined as 5 µM.

Regarding `CC(=O)O[C@@H]1CC[C@@]2(C)[C@@H](CC[C@]3(C)[C@@H]2CC=C2[C@@H]4[C@@H](C)[C@H](C)CC[C@]4(C)CC[C@]23C)[C@@]1(C)C(=O)O` [Acetyl-boswelliasäure], the IC50 is 7 µM.

On to `C[C@H]1[C@H](C)CC[C@]2(C)CC[C@]3(C)C(=CC(=O)[C@@H]4[C@@]5(C)CC[C@@H](O)[C@](C)(C(=O)O)[C@@H]5CC[C@]43C)[C@H]12` [11-Keto-ß-boswelliasäure], for which the IC50 came to 5 µM.

In the case of `CC(=O)O[C@@H]1CC[C@@]2(C)[C@@H](CC[C@]3(C)[C@@H]2CC=C2[C@@H]4CC(C)(C)CC[C@]4(C)CC[C@]23C)[C@@]1(C)C(=O)O` [Acetyl-α-boswelliasäure], the IC50 was found to be 7 µM.
